Measured values from US11891400B2, “Pyrazolo[1,5-a]pyrimidine-3-carboxamide derivatives useful in the treatment of psoriasis and systemic lupus erythematosus” (Eli Lilly and Company, priority 2018, dated 2024).

What was measured:
TYK2 JH2 = molecular target: T1, TYK2 JH2 (Homo sapiens, UniProt P29597); assay: Binding to TYK2 JH2 by Scintillation Proximity Assay; conditions: His-tagged TYK2 JH2, 3H-labelled ligand 50 nM, SPA; geometric mean (SEM); read-out: IC50, inhibition of radioligand binding to TYK2 JH2
T1 construct: The pseudokinase domain (JH2) of human JAK (Janus family of cytoplasmic tyrosine kinases) family tyrosine kinase 2 (TYK2); made in house
T1 sequence (P29597 589-875 limits assumed): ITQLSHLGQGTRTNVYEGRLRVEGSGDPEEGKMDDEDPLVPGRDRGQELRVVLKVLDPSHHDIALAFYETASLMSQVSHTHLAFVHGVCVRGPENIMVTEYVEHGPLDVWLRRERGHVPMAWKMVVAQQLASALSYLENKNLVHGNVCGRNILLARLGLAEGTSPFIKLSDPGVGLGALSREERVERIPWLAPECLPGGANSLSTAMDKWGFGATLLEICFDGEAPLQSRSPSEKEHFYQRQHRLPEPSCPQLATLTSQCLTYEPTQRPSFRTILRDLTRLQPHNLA
Description: The pseudokinase domain (JH2) of human JAK (Janus family of cytoplasmic tyrosine kinases) family tyrosine kinase 2 (TYK2) with an N-terminal His^6 tag is expressed in baculovirus and purified by Ni-NTA affinity and size-exclusion chromatography. Yttrium (YSi) His-Tag scintillation proximity assay (SPA) beads (cat #PRNQ0096) are purchased from PerkinElmer Life Sciences. ^3H—N-[(1R)-1-[3-[8-Methyl-5-(methylamino)-8H-imidazo[4,5-d]thiazolo[5,4-b]pyridin-2-yl]phenyl]ethyl]-2-(methylsulfonyl) benzamide is synthesized by Quotient Bio with a specific activity of 63 Ci/mmol and a concentration 6.78 μM stored in ethanol (cat #TRQ41678) (See also e.g., J. S. Tokarski, et al., J. Biol. Chem., vol. 290(17), pages 11061-11074 (2015) and R. Moslin, et al., Med. Chem. Commun., vol. 8, pages 700-712 (2017)).
A 3 fold, 10 point serial dilution of Example 1 is prepared in 100% DMSO (200 nL) and transferred to a 96 well, white, clear bottom, non-binding surface assay plate (Costar 3604) using acoustic liquid handling. Control wells used to determine percent inhibition contained either DMSO (200 nL) or cold, unlabeled inhibitor (200 nL, 10 mM, 200 μM final concentration). […] After 15 minutes at room temperature, radioactivity is counted using the Trilux Microbeta.

[1] = system: IFNα signaling through pSTAT1 in TF1 cells; assay: Inhibition of IFNα signaling through pSTAT1 in TF1 cells; format: cell-based; conditions: Homo sapiens, TF-1, 20 min, 10 ng/ml IFNα2 for 20 minutes, AlphaLISA, geometric mean (SEM), read-out: IC50, inhibition of p-Stat1 (Tyr701)
Procedure: TF1 cells (ATCC, CL-2003) are grown in RPMI 1640 (GIBCO) supplemented with 10% dialyzed FBS, 0.1 mg/ml Ampicillin and 2 ng/mL granulocyte macrophage colony stimulating factor. TF1 cells (100 K per well) are seeded in a 96-well poly-D-lysine coated plates in serum-free DMEM and incubated overnight at 37° C. under 5% CO2. Example 1 is serially diluted in DMSO, added to the cells, and incubated at 37° C. for 1 hr. Cells are then stimulated with 10 ng/ml IFNα2 at 37° C. for 20 minutes. After removing the medium, the cells are lysed in buffer containing Halt protease and phosphatase inhibitor cocktail (Thermo Scientific #78441) at room temperature for 30 minutes. The amount of p-Stat1 (Tyr701) is quantified as light emission at 615 nm using the AlphaLISA SureFire Ultra p-Stat1 (Tyr701) assay kit (Perkin Elmer #ALSU-PST1-A50K) following the vendor's recommended protocol. Percent inhibition at each inhibitor concentration is calculated and fit to the four parameter nonlinear logistic equation using Genedata Screener® to give an IC50 for the compound of Example 1 of 0.008 μM (±0.001 μM, n=5) and for the compound of Example 2 of 0.010 μM (±0.001 μM, n=4) expressed as GeoMetric means with the standard error of the mean (SEM).

[2] = system: IL-23 signaling (STAT3 phosphorylation) in Kit225 cells; assay: IL23 pSTAT3 AlphaLISA assay; format: cell-based; conditions: 0.5 h, IL23 25 ng/ml for 30 minutes, geometric mean (SEM), read-out: relative IC50, IL23 pSTAT3
Procedure: IL2-dependent Kit225 cells expressing endogenous IL23 receptors are stably transduced with the Lenti STAT3 Reporter linked to firefly luciferase (SABiosciences CLS-6028L). These cells are used to monitor TYK2 activity by quantifying gene expression caused by STAT3 phosporylation following induction by IL23 in the presence of IL2 using AlphaLISA technology (TGR Biosciences ALSU-TST3-A50K). The cells are grown in RPMI 1640 (Gibco 22400) supplemented with 10% FBS (Invitrogen 10082), 1× Pen/Strep (Gibco 15140-122), 200 ng/ml Puromycin (Sigma P9620), and fresh 10 ng/ml recombinant human IL2 (R&D Systems 202-IL-50). For assay preparation, cells are dispensed into Biocoat black poly-d-lysine coated clear bottom 384-well plates (Becton Dickinson Bio-Coat 35-4640) in DMEM (Sigma D5796) at 300,000 cells/well and allowed to incubate overnight at 37° C. Compounds solubilized in DMSO are serially diluted 1:3 to produce a 10-point concentration response curve (final DMSO=0.1%). Cells are pre-incubated with Example 1 for 1 hour at 37° C., then stimulated with IL23 (25 ng/ml final) for 30 minutes. […] The AlphaLISA reaction is performed following the vendor's recommended protocol, and the luciferase levels are measured using an Envision plate reader (Perkin Elmer). […]

| IC50 (TYK2 JH2) [nM] | IC50 [1] [nM] | IC50 [2] [nM] | SMILES |
| --- | --- | --- | --- |
| 40 | 10 | 10 | CCOc1ccccc1Nc1cc(NC)n2ncc(C(=O)N[C@@H]3CCN(C)C3=O)c2n1 (single isomer, unassigned) [Example 2] |
| 45 | 8 | 9 | CNc1cc(Nc2ccccc2OC)nc2c(C(=O)N[C@@H]3CCN(C)C3=O)cnn12 [Example 1, 5-(2-Methoxyanilino)-7-(methylamino)-N-[(3R)-1-methyl-2-oxo-pyrrolidin-3-yl]pyrazolo[1,5-a]pyrimidine-3-carboxamide] |
